This experiment concerns the target T1, S1P4 (Homo sapiens, UniProt O95977).
T1 construct: expressed in transfected cells
T1 sequence (O95977 1-384): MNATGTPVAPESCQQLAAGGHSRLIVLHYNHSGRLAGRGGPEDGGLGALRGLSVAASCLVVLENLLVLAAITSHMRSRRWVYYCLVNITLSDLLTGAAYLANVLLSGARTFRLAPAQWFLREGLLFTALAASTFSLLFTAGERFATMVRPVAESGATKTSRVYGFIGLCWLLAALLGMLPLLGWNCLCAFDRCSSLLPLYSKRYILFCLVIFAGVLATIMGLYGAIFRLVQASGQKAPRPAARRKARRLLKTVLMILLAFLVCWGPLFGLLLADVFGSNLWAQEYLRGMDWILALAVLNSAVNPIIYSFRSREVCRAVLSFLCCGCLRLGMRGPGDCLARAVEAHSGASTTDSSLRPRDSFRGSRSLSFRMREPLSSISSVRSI
Put plainly: GTPγS binding assay, S1P4. Format: biochemical. The conditions noted are these: CHO cells expressing S1P4. As to the method: An expression vector for the human S1P4 gene (HSEDG4; GenBank Accession Number AJ000479) fused to the c-myc peptide tag at the C-terminus is obtained as described in Van Brocklyn et al. 2000, Blood 95(8), 2624. The encoding DNA for the S1P4-myc fusion protein is cloned in the mammalian expression vector pRc/CMV (Invitrogen), which confers G418 resistance for the selection of stable mammalian cells. The DNA sequence of the S1P4 insert is determined on both strands. […] The S1P4-myc cDNA is inserted into the pRc/CMV vector using HindIII/XbaI.
To develop stable cell lines expressing the c-myc tagged S1P4 receptor 5 μg of plasmid pRc/CMV myc-S1P4 is cut using restriction endonuclease PvuI, which cleaves the plasmid once. The linearized plasmid is then precipitated using a final concentration of 0.3M sodium acetate, pH5.0 and 66% ethanol. After centrifugation and washing, the DNA pellet is dissolved in 30 μl water. […] Individual clones that grew after the sort and selection procedure are expanded and one clone is finally selected based on the level of S1P4 mRNA expression determined by TaqMan quantitative PCR analysis.
Membrane proteins are prepared from wild type CHO-K1 and the CHO cell clones expressing human S1P4. […] The protein concentration is determined using the Bio Rad Protein Assay and human IgG as standard. […]
On the technique in general: Binding of GTPγS marks nucleotide exchange on a G protein.

As usually defined, the EC50 is the concentration giving half of the maximal effect. Lower therefore signals a more potent agent.

`NC(CNC(=O)c1cc2c(-c3ccccc3Cc3ccccc3)cccc2[nH]1)C(=O)O` (stereo not shown) [Example 2] registered an EC50 of 250 nM.

These data come from patent US7754896B2, “Indol-alanine derivatives as selective S1P4-agonists” (Novartis AG, priority 2004, dated 2010).
